pIC50: −log10 of the molar value.
Experiments:
[1] = molecular target: T1, human GABAA-receptor subtype α3β3γ2L (Homo sapiens, UniProt P28472+P34903); experiment: Patch clamp (Dynaflow) THDOC enhancement of GABA response, HEK-293 cells, α3β3γ2L; format: cell-based; settings: for reduction of THDOC-enhanced GABA effect, Mean ± SEM %: 100 nM THDOC, 100 μM GABA, GABA response subtracted
T1 construct: expressed in transfected cells
Text: (§1) In these tests the protocol was optimized to be like the physiological conditions in the synaptic cleft.
(§2) Preparation of cell lines: HEK-293 cells permanently transfected with the human α1-β2-γ2L, α2-β3-γ2S, α3-ββ3-γ2L, α4-β3-δ or α5-β3-γ2L GABAA-receptor subtypes were used. The cell lines permanently expressing a functional human GABAA-receptor was made in following steps. The human GABAA-receptor subunits e.g. α1 (308-1727 NM_000806), β2 (214-1679 NM_000813), γ2L (290-1785 NM_198904), α2, β3, γ2S, α3, α4, δ and α5 including introduced Kozac sequences just before the start codons were subcloned into mammalian expression vectors containing Geneticin, Hygromycin B, and Zeocin resistance, respectively. A HEK-293 cell line stably expressing the three GABAA-receptor subunits was produced by transfection of the subunits, one at a time. The transfection was followed by selection with the appropriate antibiotics, cell separation with the use of subunit specific antibodies and production of single cell colonies. Produced cell lines were analysed with immunocytochemistry for the three GABAA-receptor subunits, followed by selection of a suitable cell line showing, for the GABAA-receptor normal and good reactivity in a patch-clamp analysis (see below) towards GABA and the GAMS THDOC.
(§3) Cell culture: HEK-293 cells, permanently transfected with human α1-β2-γ2L, α2-β3-γ2S, α3-β3-γ2L, α4-β3-δ and α5-β3-γ2L GABAA-receptor subtypes, were seeded at a density of 3×10^4/25 cm^2 in cell binding culture flask. The transfected cells were used for patch-clamp experiments 3 days after seeding. When using the cells for patch-clamp experiments the cells were washed twice with oxygen-bubbled EC-solution (see below). About 5 mL EC was then added and the cells were kept in the incubator for about 15 minutes. After 15 minutes the cells came loose from the bottom of the flask and were separated by carefully sucking couple of times with a Pasteur pipette.
(§4) Dynaflow™ system: Dynaflow™ system with resolve chips was used for all patch-clamp experiments. The resolve chips is made of non-sticky materials. The channel width is 150 μm and the height 50 μm. The well volume is 280 μL. Run time at the flow rate of 26 μL/min is […]. The pump settings were as follow: Omnifix 2 ml syringe with inner diameter of 9.65 mm was used. The syringe pump flow rate of chip was 26 μL/min.
(§5) Steroids and GABA: GABA was dissolved in EC-solution by ultrasound for about 40 minutes to the concentration of 10 mM in room temperature. All steroids were dissolved to the concentration of 6 mM in dimethyl sulfoxide (DMSO). The DMSO concentration was 0.1% in all end-solutions, including the wash solution (EC) and the solution with GABA alone. End-solutions are the solutions added into the wells of the chip.
(§6) Electrophysiology: Patch electrodes were pulled from 1.5 mm O.D., 0.86 mm I.D. borosilicate capillary glass without filament. […] The intracellular solution (IC) comprised of (in mM): 140 Cs-gluconate, 3.0 NaCl, 1.2 MgCl2, 1.0 EGTA, 10 HEPES. pH was adjusted to 7.2 with CsOH. The extracellular (EC) solution used during recordings contained (in mM): 137 NaCl, 5.0 KCl, 1.0 CaCl2), 1.2 MgCl2, 10 HEPES, 10 glucose. pH was adjusted with NaOH to 7.4. After compensating for the liquid junction potential, a steady holding potential of −17 mV was used in all experiments. In physiological conditions the HEK-293 has a resting potential at −40 mV and a low concentration of chloride ions inside the cell. By using the holding potential of-17 mV and the intracellular solution with low chloride ion concentration the chloride ions flux into the cell when the receptors are activated. All experiments were performed at room temperature (21 to 23° C.). The following standard protocol was used for all experiments.
(§7) GABA applications: By using the Dynaflow equipment it is possible to study transfected HEK-293 during almost physiological conditions.

[2] = molecular target: T2, human α2-β3-γ2S GABAA-receptor subtype (Homo sapiens, UniProt P28472+P47869); experiment: Patch clamp (Dynaflow) GABA-mediated current response, HEK-293 cells, α2β3γ2S; format: cell-based; settings: 1 μM steroid
T2 construct: expressed in transfected cells
T2 sequence (P47869 29-451): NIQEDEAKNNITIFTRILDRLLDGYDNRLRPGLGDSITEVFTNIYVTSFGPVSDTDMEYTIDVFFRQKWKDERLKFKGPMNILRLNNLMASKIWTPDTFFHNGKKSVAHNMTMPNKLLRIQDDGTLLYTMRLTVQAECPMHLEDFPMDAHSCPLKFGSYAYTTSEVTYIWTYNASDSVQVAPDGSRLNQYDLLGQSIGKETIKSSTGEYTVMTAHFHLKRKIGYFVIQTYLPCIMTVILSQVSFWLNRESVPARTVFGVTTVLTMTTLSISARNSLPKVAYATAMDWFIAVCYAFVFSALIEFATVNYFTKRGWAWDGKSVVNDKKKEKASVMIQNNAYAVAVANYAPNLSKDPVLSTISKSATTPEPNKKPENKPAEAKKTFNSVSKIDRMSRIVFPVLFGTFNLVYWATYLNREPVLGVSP
T2 sequence (P28472 26-473): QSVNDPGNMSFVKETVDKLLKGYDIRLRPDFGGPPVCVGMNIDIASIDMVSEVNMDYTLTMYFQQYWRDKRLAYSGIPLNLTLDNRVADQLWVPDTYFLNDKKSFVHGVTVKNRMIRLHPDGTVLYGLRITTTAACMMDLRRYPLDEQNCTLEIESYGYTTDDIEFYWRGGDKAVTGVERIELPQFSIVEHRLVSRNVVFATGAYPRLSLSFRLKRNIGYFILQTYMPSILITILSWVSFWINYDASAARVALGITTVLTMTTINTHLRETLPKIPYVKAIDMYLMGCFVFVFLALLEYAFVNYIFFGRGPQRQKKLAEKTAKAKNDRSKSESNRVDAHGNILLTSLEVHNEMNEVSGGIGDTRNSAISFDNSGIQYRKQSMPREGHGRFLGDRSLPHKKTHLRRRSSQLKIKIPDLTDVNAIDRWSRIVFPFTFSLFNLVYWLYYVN
T2 sequence (P18507 40-467 isoform P18507-1 partner limits assumed): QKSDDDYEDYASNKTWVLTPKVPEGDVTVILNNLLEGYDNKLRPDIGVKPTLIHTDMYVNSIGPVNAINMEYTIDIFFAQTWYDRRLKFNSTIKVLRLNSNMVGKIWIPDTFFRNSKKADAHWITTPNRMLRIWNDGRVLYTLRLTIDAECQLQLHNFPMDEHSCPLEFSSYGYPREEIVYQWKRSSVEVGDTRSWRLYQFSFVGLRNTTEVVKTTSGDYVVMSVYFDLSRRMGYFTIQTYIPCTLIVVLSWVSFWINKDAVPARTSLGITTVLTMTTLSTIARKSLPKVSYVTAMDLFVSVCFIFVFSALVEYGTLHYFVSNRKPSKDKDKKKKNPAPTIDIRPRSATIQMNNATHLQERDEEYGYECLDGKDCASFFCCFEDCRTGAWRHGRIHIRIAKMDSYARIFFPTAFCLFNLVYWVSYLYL
Text: as §1, §2, §3, §4
(§8) Steroids and GABA: GABA was dissolved in EC-solution by ultrasound for about 40 minutes to the concentration of 10 mM in room temperature. All steroids were dissolved to the concentration of 6 mM in dimethyl sulfoxide (DMSO). The DMSO concentration was 0.1% in all end-solutions, including the wash solution (EC) and the solution with GABA alone. End-solutions are the solutions added into the wells of the chip. […]

GABAA-receptors = experiment: Patch clamp, steroid alone without GABA present; format: cell-based, human
Text: as §1
as §2, with “THDOC. […]” for “THDOC.”

[3] = molecular target: T3, human α5-β3-γ2L GABAA-receptor subtype (Homo sapiens, UniProt P28472+P31644); experiment: Patch clamp (Dynaflow) GABA-mediated current response, HEK-293 cells, α5β3γ2L; format: cell-based; settings: 1 μM steroid
T3 construct: expressed in transfected cells
T3 sequence (P31644 32-462): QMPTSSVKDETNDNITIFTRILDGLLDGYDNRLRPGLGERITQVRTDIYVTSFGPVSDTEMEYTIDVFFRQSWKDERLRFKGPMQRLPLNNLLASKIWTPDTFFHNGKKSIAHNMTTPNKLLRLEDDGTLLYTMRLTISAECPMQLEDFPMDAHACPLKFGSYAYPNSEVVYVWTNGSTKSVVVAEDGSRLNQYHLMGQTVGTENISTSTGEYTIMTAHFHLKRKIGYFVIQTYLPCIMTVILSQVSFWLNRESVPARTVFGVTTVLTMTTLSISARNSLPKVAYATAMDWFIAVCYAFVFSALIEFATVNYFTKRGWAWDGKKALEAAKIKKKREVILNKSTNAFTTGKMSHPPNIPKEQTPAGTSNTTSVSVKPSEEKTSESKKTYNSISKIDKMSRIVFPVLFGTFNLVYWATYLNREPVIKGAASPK
T3 sequence (P28472 26-473): as the sequence (P28472 26-473) above
T3 sequence (P18507 40-475 partner): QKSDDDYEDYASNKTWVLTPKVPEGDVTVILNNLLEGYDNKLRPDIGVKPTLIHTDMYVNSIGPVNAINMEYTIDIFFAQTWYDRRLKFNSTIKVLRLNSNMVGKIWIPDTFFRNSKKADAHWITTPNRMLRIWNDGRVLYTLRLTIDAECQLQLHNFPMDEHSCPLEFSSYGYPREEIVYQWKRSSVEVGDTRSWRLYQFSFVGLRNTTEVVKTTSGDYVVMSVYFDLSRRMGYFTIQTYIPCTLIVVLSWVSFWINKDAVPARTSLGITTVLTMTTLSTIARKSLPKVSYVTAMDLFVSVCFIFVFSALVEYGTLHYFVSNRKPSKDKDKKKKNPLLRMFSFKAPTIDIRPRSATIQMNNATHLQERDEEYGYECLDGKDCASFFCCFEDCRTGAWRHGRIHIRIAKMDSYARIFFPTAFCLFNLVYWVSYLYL
Text: as §1, §2, §3, §4, §8

[4] = molecular target: T4, human α1-β2-γ2L GABAA-receptor subtype (Homo sapiens, UniProt P14867+P47870); experiment: Patch clamp (Dynaflow) GABA-mediated current response, HEK-293 cells, α1β2γ2L; format: cell-based; settings: 1 μM steroid, α1β2γ2L; for effect on GABA response: mean ± SEM, + enhancement, − reduction
T4 construct: expressed in transfected cells
T4 sequence (P14867 28-456): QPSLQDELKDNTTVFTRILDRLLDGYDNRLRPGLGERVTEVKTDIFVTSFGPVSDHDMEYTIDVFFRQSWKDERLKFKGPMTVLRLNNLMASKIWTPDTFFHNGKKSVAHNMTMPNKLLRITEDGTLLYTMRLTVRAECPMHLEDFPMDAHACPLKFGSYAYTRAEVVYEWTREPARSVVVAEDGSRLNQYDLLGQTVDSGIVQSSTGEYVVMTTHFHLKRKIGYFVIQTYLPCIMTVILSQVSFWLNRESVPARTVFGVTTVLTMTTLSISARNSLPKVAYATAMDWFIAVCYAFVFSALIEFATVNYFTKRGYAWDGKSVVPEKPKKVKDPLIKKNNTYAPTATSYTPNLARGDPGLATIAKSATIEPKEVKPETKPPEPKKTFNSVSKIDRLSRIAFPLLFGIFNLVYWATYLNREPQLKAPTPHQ
T4 sequence (P47870 26-474 isoform P47870-1 limits assumed): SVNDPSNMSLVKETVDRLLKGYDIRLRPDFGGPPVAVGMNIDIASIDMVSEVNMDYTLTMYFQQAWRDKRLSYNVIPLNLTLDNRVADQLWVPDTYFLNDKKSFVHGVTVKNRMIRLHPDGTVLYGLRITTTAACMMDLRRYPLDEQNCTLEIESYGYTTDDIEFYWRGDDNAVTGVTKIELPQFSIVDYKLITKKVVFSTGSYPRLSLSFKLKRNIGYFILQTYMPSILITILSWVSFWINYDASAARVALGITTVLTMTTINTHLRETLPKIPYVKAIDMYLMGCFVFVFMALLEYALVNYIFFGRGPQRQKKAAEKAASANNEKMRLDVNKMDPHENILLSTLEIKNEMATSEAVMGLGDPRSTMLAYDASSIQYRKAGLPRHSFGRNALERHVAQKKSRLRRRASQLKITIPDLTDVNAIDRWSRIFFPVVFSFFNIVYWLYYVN
T4 sequence (P18507 40-475 partner): as the sequence (P18507 40-475 partner) above
Text: as §1, §2, §3, §4, §5
as §6, with “By using the holding potential of-17 mV and the intracellular solution with low chloride ion concentration the chloride ions flux into the cell when the receptors are activated. All experiments were performed at room temperature (21 to 23° C.). The following standard protocol was used for all experiments.” left out

[5] = molecular target: T5, human α4-β3-δ GABAA-receptor subtype (Homo sapiens, UniProt P28472+P48169); experiment: Patch clamp (Dynaflow) GABA-mediated current response, HEK-293 cells, α4β3δ; format: cell-based; settings: 1 μM steroid
T5 construct: expressed in transfected cells
T5 sequence (P48169 36-554): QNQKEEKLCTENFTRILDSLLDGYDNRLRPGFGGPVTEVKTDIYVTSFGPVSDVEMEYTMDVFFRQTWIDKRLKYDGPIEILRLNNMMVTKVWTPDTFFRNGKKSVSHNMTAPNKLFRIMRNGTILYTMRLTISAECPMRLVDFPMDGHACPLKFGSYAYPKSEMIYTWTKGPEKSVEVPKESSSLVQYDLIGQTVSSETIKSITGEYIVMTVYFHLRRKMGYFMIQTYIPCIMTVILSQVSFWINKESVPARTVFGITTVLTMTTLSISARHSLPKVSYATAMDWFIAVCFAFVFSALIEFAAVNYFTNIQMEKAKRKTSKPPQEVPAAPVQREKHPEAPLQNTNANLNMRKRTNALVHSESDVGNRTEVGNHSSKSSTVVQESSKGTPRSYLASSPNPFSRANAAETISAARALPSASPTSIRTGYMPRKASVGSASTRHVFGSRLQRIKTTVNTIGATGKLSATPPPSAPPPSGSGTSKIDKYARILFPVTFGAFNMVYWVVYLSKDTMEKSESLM
T5 sequence (P28472 26-473): as the sequence (P28472 26-473) above
T5 sequence (O14764 25-452 partner): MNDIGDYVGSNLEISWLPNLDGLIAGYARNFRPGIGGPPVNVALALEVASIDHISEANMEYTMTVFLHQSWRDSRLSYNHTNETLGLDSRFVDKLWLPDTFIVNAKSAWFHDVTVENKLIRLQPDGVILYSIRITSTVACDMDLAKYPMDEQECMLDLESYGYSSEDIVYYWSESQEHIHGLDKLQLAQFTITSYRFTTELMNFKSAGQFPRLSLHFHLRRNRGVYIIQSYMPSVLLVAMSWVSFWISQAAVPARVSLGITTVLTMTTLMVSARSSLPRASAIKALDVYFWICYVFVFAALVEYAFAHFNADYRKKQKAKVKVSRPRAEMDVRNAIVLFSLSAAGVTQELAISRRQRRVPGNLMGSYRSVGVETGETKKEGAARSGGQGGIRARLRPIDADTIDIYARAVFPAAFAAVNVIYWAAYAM
Text: as §1, §2, §3, §4, §8

[6] = molecular target: T6, human α3-β3-γ2L GABAA-receptor subtype (Homo sapiens, UniProt P28472+P34903); experiment: Patch clamp (Dynaflow) GABA-mediated current response, HEK-293 cells, α3β3γ2L; format: cell-based; settings: for effect on GABA (in words) / effect on GABA response: 1 μM steroid; for activation of the receptor in the absence of GABA / Imax on 100 μM GABA mediated current response: 0.01-10 μM steroid; for activation of the receptor in the absence of GABA: no GABA, data not shown; for Imax on 100 μM GABA mediated current response: from best fit curve
T6 construct: expressed in transfected cells
T6 sequence (P34903 29-492): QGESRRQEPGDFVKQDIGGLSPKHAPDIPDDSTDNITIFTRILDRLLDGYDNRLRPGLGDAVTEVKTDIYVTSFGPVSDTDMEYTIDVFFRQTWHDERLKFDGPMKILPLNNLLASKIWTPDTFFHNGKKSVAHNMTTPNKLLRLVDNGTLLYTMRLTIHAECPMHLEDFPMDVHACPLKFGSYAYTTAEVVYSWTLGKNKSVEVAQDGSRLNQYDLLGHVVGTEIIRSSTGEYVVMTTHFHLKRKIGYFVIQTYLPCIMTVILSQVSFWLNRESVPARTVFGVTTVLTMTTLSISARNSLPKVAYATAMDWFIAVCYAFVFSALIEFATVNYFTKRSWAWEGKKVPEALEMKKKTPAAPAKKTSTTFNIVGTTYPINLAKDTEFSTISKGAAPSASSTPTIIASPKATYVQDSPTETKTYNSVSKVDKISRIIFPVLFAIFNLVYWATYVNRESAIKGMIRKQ
T6 sequence (P28472 26-473): as the sequence (P28472 26-473) above
T6 sequence (P18507 40-475 partner): as the sequence (P18507 40-475 partner) above
Text: as §1, §2, §3, §4, §5, §6, §7

T1 sequence (P34903 29-492): as the sequence (P34903 29-492) above
T1 sequence (P28472 26-473): as the sequence (P28472 26-473) above
T1 sequence (P18507 40-475 partner): as the sequence (P18507 40-475 partner) above

Row | Compound | reduction of THDOC-enhanced GABA effect, Mean ± SEM % ([1]; steroid conc. 0.03 μM) | reduction of THDOC-enhanced GABA effect, Mean ± SEM % ([1]; steroid conc. 0.1 μM) [%] | reduction of THDOC-enhanced GABA effect, Mean ± SEM % ([1]; steroid conc. 0.3 μM) [%] | reduction of THDOC-enhanced GABA effect, Mean ± SEM % ([1]; steroid conc. 1 μM) [%] | reduction of THDOC-enhanced GABA effect, Mean ± SEM % ([1]; steroid conc. 3 μM) [%] | effect on GABA (in words) [2] | effect on GABA response [2] | effect on the GABAA-receptors alone without GABA present (GABAA-receptors) | effect on GABA (in words) [3] | effect on GABA response [3] | effect on GABA (in words) [4] | effect on GABA response [4] | effect on GABA (in words) [5] | effect on GABA response [5] | pIC50 [6] | effect on GABA (in words) ([6]; α3β3γ2L) | effect on GABA response ([6]; α3β3γ2L) [%] | activation of the receptor in the absence of GABA [6] | Imax on 100 μM GABA mediated current response ([6]; α3β3γ2L) [%] | effect on 100 μM GABA response, Mean ± SEM % ([6]; steroid conc. 0.01 μM, α3β3γ2L) | further results
1 | CC[C@]1(O)CC[C@@]2(C)[C@@H](CC[C@@H]3[C@@H]2CC[C@]2(C)C(=O)CC[C@@H]32)C1 [3α-ethyl-3β-hydroxy-5α-androstan-17-one] | −4.4 ± 8.5% | −35 ± 8.8 | −72 ± 8.3 | −120 ± 5.6 | −202 ± 13 | significant antagonistic effect | −29 ± 1.3% | no effect | significant antagonistic effect | −38 ± 2.0% | significant antagonistic effect | −9.3 ± 1.3% | significant antagonistic effect | −12 ± 2.3% | 6.05 | significant antagonistic effect | −38 ± 2.4 | did activate the receptor in the absence of GABA | −77 | +6.6 ± 2.2% | concentration at which antagonistic effect on THDOC enhancement of GABA is seen ([1]; α3β3γ2L): ≥ 0.1 µM; significant reducing effect on 100 μM GABA response ([6]; at 0.3 μM, α3β3γ2L): more than 10%; effect on 100 μM GABA response, Mean ± SEM % ([6]; steroid conc. 0.03 μM, α3β3γ2L): −1.6 ± 0.7%; effect on 100 μM GABA response, Mean ± SEM % ([6]; steroid conc. 0.1 μM, α3β3γ2L): +4.4 ± 3.0%; effect on 100 μM GABA response, Mean ± SEM % ([6]; steroid conc. 0.3 μM, α3β3γ2L): −11 ± 0.7%; effect on 100 μM GABA response, Mean ± SEM % ([6]; steroid conc. 1 μM, α3β3γ2L): −39 ± 3.1%; effect on 100 μM GABA response, Mean ± SEM % ([6]; steroid conc. 3 μM, α3β3γ2L): −67 ± 3.0%; effect on 100 μM GABA response, Mean ± SEM % ([6]; steroid conc. 10 μM, α3β3γ2L): −75 ± 3.0%; concentration at which antagonistic effect against GABAs effect is seen ([6]; α3β3γ2L): ≥ 0.3 µM
2 | CC[C@]1(O)CC[C@@]2(C)[C@@H](CC[C@@H]3[C@@H]2CC[C@]2(C)[C@@H](C(C)=O)CC[C@@H]32)C1 [3α-ethyl-3β-hydroxy-5α-pregnan-20-one] | +19 ± 7.4% | −7.7 ± 12 | −34 ± 6.7 | −78 ± 8.8 | −141 ± 15 | no significant antagonistic or agonistic effect | +0.6 ± 2.3% | no effect | no significant antagonistic or agonistic effect | +3.2 ± 2.6% | agonistic enhancing effect | +6.0 ± 2.0% | no significant antagonistic or agonistic effect | +6.5 ± 2.5% | 5.77 | antagonizing effect | −8.5 ± 1.9 | did activate the receptor in the absence of GABA | −47 | +3.7 ± 2.4% | pIC50 [1]: 6.40; block of the THDOC enhancement ([1]; 3 μM steroid): completely block the THDOC enhancement; effect on THDOC's autonomic opening of the α3β3γ2L GABAA-receptor ([1]; in the range of the vehicle): slight agonistic effect; concentrations at which antagonist against THDOC enhancement of GABA ([1]; α3β3γ2L): above 300 nM; significant reducing effect on 100 μM GABA response ([6]; at 3 μM, α3β3γ2L): more than 30%; effect on 100 μM GABA response, Mean ± SEM % ([6]; steroid conc. 0.03 μM, α3β3γ2L): +9.1 ± 4.4%; effect on 100 μM GABA response, Mean ± SEM % ([6]; steroid conc. 0.1 μM, α3β3γ2L): +1.2 ± 4.2%; effect on 100 μM GABA response, Mean ± SEM % ([6]; steroid conc. 0.3 μM, α3β3γ2L): +15 ± 4.7%; effect on 100 μM GABA response, Mean ± SEM % ([6]; steroid conc. 1 μM, α3β3γ2L): −8.1 ± 2.7%; effect on 100 μM GABA response, Mean ± SEM % ([6]; steroid conc. 3 μM, α3β3γ2L): −32 ± 4.0%; effect on 100 μM GABA response, Mean ± SEM % ([6]; steroid conc. 10 μM, α3β3γ2L): −46 ± 6.8%

— patent US20250387409A1, “3-BETA-HYDROXY-3-ALPHA-ETHYL STEROIDS FOR MODULATION OF THE ALPHA-3 SUBTYPE OF THE GABAA RECEPTOR” (priority 2021, published 2025)
